# Values quoted from earlier work in US20080057142A1, “COMPOSITIONS AND METHODS FOR WEIGHT-LOSS AND WEIGHT-LOSS MAINTENANCE IN DAYTIME AND NIGHTTIME FORMULATION” (priority 2005, published 2008).
# Details: EGCG, but not related catechins
substance,measurement,value
epigallocatechin-3-gallate [EGCG],body weight,reduced body weight
same,food intake,significantly reduced food intake
